According to BindingDB's records for patent US10188615 (ACUCELA INC., 2019):

Molecular target: T1, Retinoid isomerohydrolase (Human, UniProt Q16518)
T1 sequence (Q16518 whole entry): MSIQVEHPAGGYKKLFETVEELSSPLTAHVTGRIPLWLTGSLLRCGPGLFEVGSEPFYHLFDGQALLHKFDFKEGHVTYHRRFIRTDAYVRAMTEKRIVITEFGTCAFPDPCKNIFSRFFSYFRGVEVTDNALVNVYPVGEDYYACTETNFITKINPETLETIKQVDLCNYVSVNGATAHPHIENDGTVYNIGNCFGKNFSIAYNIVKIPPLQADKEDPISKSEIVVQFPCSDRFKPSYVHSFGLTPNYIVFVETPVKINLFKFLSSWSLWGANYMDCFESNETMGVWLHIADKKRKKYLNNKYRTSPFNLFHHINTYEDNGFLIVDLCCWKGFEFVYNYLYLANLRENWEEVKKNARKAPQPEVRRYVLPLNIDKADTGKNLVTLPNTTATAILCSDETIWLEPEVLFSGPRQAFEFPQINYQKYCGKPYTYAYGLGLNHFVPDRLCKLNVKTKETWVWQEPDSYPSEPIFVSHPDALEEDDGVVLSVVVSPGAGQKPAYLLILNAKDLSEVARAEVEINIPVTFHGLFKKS
Test: In Vitro Isomerase Inhibition Assay

Row | SMILES | IC50
1 | CC(C)CCOc1cccc(CCCN)c1 [US10188615, Example 33] | in the range around 550 nM
2 | NCCC(O)c1cccc(OCC2CCCCCCC2)c1 (stereo not given) [US10188615, Example 106] | in the range around 55 nM
3 | CCCC(CCC)COc1cccc(OCCN)c1 [US10188615, Example 25] | in the range around 55 nM
4 | NCCC#Cc1cccc(OCC2CCCCC2)c1 [US10188615, Example 196] | in the range around 5500 nM
5 | NCCCCc1cccc(OCC2CCCCC2)c1 [US10188615, Example 184] | in the range around 5500 nM
6 | CC[C@H](CN)[C@@H](O)c1cccc(OCC2CCCCC2)c1 [US10188615, Example 49] | in the range around 55 nM
7 | CC(C)CCOc1cccc(C(O)CCN)c1 (stereo not given) [US10188615, Example 107] | in the range around 55 nM
8 | NCCOc1cccc(OCC2CCC2)c1 [US10188615, Example 58] | in the range around 550 nM
9 | NCCCc1cccc(OCCOCc2ccccc2)c1 [US10188615, Example 102] | in the range around 550 nM
10 | NC/C=C/c1cc(F)cc(OCC2CCCCC2)c1 [US10188615, Example 198] | in the range around 550 nM
11 | NCCC(CO)c1cccc(OCC2CCCCC2)c1 (stereo not given) [US10188615, Example 80] | in the range around 550 nM
12 | CN(CCN)c1cccc(OCC2CCCCC2)c1 [US10188615, Example 128] | in the range around 5500 nM
13 | Cc1ccc(OCC2CCCCC2)cc1OCCN [US10188615, Example 160] | in the range around 5500 nM
14 | NCCOc1cccc(OCC2(O)CCCCC2)c1 [US10188615, Example 26] | in the range around 550 nM
15 | NCCCc1cccc(OCC(O)c2ccccc2)c1 (stereo not given) [US10188615, Example 150] | in the range around 550 nM
16 | NCC/C(=N\N)c1cccc(OCC2CCCCC2)c1 [US10188615, Example 126] | in the range around 550 nM
17 | CCCC(O)COc1cccc(CCCN)c1 (stereo not given) [US10188615, Example 167] | in the range around 550 nM
18 | CC(C)C(O)COc1cccc(OCCN)c1 (stereo not given) [US10188615, Example 153] | in the range around 550 nM
19 | NCCC(O)c1cccc(OCCCCCOCc2ccccc2)c1 (stereo not given) [US10188615, Example 115] | in the range around 55 nM
20 | NCCCc1cccc(OCCCCCO)c1 [US10188615, Example 151] | in the range around 550 nM
21 | NCCCc1cccc(OCC2(O)CCCCCCC2)c1 [US10188615, Example 135] | in the range around 550 nM
22 | COCCCCOc1cccc(CCCN)c1 [US10188615, Example 41] | in the range around 550 nM
23 | COCCOc1cccc(OCCN)c1 [US10188615, Example 113] | in the range around 5500 nM
24 | COc1ccccc1COc1cccc(CCCN)c1 [US10188615, Example 38] | in the range around 550 nM
25 | NCCOc1cccc(OCCCCOCc2ccccc2)c1 [US10188615, Example 100] | in the range around 5500 nM

Row | SMILES | IC50
26 | Cc1cc(OCCN)cc(OCC2CCCCC2)c1 [US10188615, Example 154] | in the range around 55 nM
27 | CCC(CC)COc1cccc(C[C@@H](O)CN)c1 [US10188615, Example 69] | in the range around 55 nM
28 | CC(=O)O[C@@H]1CCCC[C@H]1COc1cccc([C@H](O)CCN)c1 [US10188615, Example 173] | in the range around 55 nM
29 | Cc1c(OCCN)cccc1OCC1CCCCC1 [US10188615, Example 164] | in the range around 550 nM
30 | C[C@@H](CN)[C@@H](O)c1cccc(OCC2CCCCC2)c1 [US10188615, Example 75] | in the range around 55 nM
31 | NCCOc1cccc(OCCCCCO)c1 [US10188615, Example 143] | in the range around 550 nM
32 | NCCCc1cccc(OCC2CCCCO2)c1 (stereo not given) [US10188615, Example 162] | in the range around 550 nM
33 | NCCCc1cccc(OCCc2ccccc2)c1 [US10188615, Example 70] | in the range around 550 nM
34 | C[C@@H](CN)Oc1cccc(OCC2CCCC2)c1 [US10188615, Example 64] | in the range around 550 nM
35 | NC[C@H](O)[C@@H](O)c1cccc(OCC2CCCCC2)c1 [US10188615, Example 177] | 100 to 1000 nM
36 | COCCCCOc1cccc(OCCN)c1 [US10188615, Example 82] | in the range around 550 nM
37 | NCCOc1cccc(OCCCC(N)=O)c1 [US10188615, Example 144] | in the range around 5500 nM
38 | C[C@@H](CN)Oc1cccc(OCC2CCCCC2)c1 [US10188615, Example 65] | in the range around 550 nM
39 | NCCC(O)c1cccc(OCCCCOCc2ccccc2)c1 (stereo not given) [US10188615, Example 114] | in the range around 55 nM
40 | NCCC(O)c1cc(OCC2CCCCC2)ccc1Br (stereo not given) [US10188615, Example 146] | in the range around 5500 nM
41 | NCC[S+]([O-])c1cccc(OCC2CCCCC2)c1 (stereo not given) [US10188615, Example 124] | in the range around 550 nM
42 | NCCOc1cccc(OCCCO)c1 [US10188615, Example 95] | in the range around 5500 nM
43 | NCCC(O)c1cccc(OCC(O)c2ccccc2)c1 (stereo not given) [US10188615, Example 161] | in the range around 55 nM
44 | NCCCc1cccc(OCc2nccs2)c1 [US10188615, Example 122] | in the range around 550 nM
45 | CCCCCOc1cccc(OCCN)c1 [US10188615, Example 90] | in the range around 55 nM
46 | COCCOCCOCC(=O)NCCC(O)c1cccc(OCC2CCCCC2)c1 (stereo not given) [US10188615, Example 77] | in the range around 5500 nM
47 | NC[C@@H](O)[C@@H](O)c1cccc(OCC2CCCCC2)c1 [US10188615, Example 180] | in the range around 55 nM
48 | NCCCc1cccc(OC[C@H]2CCCC[C@H]2O)c1 (relative stereo) [US10188615, Example 147] | in the range around 55 nM
49 | C=C(CCN)c1cccc(OCC2CCCCC2)c1 [US10188615, Example 78] | in the range around 550 nM
50 | NCCC(O)c1cccc(OCc2ccccc2)c1 (stereo not given) [US10188615, Example 37] | in the range around 55 nM

Row | SMILES | IC50
51 | NCCCc1cccc(OCC2CCCCCCC2)c1 [US10188615, Example 99] | in the range around 550 nM
52 | CCC(O)(CC)COc1cccc(CCCN)c1 [US10188615, Example 32] | in the range around 55 nM
53 | NCCCc1cccc(OCCCCOCc2ccccc2)c1 [US10188615, Example 42] | in the range around 5500 nM
54 | NCCCc1cccc(OCCCO)c1 [US10188615, Example 98] | in the range around 5500 nM
55 | NCCOc1cccc(OCC2CCCCCCC2)c1 [US10188615, Example 93] | in the range around 55 nM
56 | NCCC(O)c1cccc(OCC2CC2)c1 (stereo not given) [US10188615, Example 71] | in the range around 55 nM
57 | CN(C)C(=O)CCCOc1cccc(OCCN)c1 [US10188615, Example 138] | in the range around 5500 nM
58 | NCCCc1cccc(OCc2ccccc2)c1 [US10188615, Example 59] | in the range around 550 nM
59 | COc1ccccc1COc1cccc(C(O)CCN)c1 (stereo not given) [US10188615, Example 92] | in the range around 55 nM
60 | CCC(CC)COc1cccc(C[C@H](O)CN)c1 [US10188615, Example 66] | in the range around 55 nM
61 | NCCOc1cccc(OCCCCCOCc2ccccc2)c1 [US10188615, Example 134] | in the range around 5500 nM
62 | NCC[C@@H](O)c1cc(O)cc(OCC2CCCCC2)c1 [US10188615, Example 179] | in the range around 55 nM
63 | NCCNc1cccc(OCC2CCCCC2)c1 [US10188615, Example 129] | in the range around 550 nM
64 | COCCCOc1cccc(OCCN)c1 [US10188615, Example 85] | in the range around 550 nM
65 | CC(C)C(O)COc1cccc(C(O)CCN)c1 (stereo not given) [US10188615, Example 158] | in the range around 55 nM
66 | NCCOc1cccc(OCC2CC2)c1 [US10188615, Example 57] | in the range around 550 nM
67 | COCCOc1cccc(C(O)CCN)c1 (stereo not given) [US10188615, Example 86] | in the range around 550 nM
68 | NCCC(O)c1cccc(OCCCOCc2ccccc2)c1 (stereo not given) [US10188615, Example 131] | in the range around 55 nM
69 | NCCSc1cccc(OCC2CCCCC2)c1 [US10188615, Example 123] | in the range around 55 nM
70 | NCCOc1cccc(OCCc2ccccc2)c1 [US10188615, Example 47] | in the range around 55 nM
71 | C[C@@H](CN)[C@H](O)c1cccc(OCC2CCCCC2)c1 [US10188615, Example 73] | in the range around 55 nM
72 | NCCC(O)c1cccc(OCc2c(Cl)cccc2Cl)c1 (stereo not given) [US10188615, Example 105] | in the range around 55 nM
73 | NCCOc1cccc(OCC2(O)CCCCCCC2)c1 [US10188615, Example 139] | in the range around 550 nM
74 | NCCCc1cccc(OCC2CCC2)c1 [US10188615, Example 61] | in the range around 550 nM
75 | NCCCc1cccc(OCCCCCOCc2ccccc2)c1 [US10188615, Example 136] | in the range around 5500 nM
